Patent US8741659B2, “Composition for measuring the binding affinity between nucleic acid and test substance, and use thereof” (Osaka University, priority 2007, dated 2014)

Key:
RRE = assay: Fluorescence titration / evaluation of binding with RRE; design: species or system HIV-1; details: 1.0 μM compound; for reduction of fluorescence intensity (residual fluorescence intensity) on binding RRE: RRE 0.0-1.0 μM; for difference in quenching efficiency between RRE and double strand RNA: FIGS. 41 and 42
Procedure: In this Example, binding between RRE and X2S was evaluated by a method identical to the method in Example 2.
The […] of RRE is shown in SEQ ID NO: 8. […] RRE was purchased from Hokkaido System Science Co., Ltd.
Firstly, the X2S solution obtained in Example 1 was diluted with a cacodylate buffer solution (sodium cacodylate: 10 mM, pH 7.0; NaCl: 100 mM), so that a concentration of X2S became 2 μM. To the 2-μM X2S solution thus obtained, RRE was added in steps at 0 μM, 1 μM, 2 μM, 3 μM, 4 μM, 5 μM, 6 μM, and 8 μM. Further, a fluorescence intensity of the 2-μM X2S solution was measured at each concentration. The fluorescence intensity was measured in the same manner as in Example 2.
FIG. 7 is a view illustrating a result of evaluation of binding between X2S and RRE. In FIG. 7, the horizontal axis represents the fluorescence wavelength, whereas the vertical axis represents the fluorescence intensity. […] Other figures include such arrows for results of measurements of fluorescence intensities.
FIG. 8 is a view plotting the fluorescence intensities at a measured wavelength of 453 nm shown in the result illustrated in FIG. 7. The horizontal axis represents the concentration of RRE, whereas the vertical axis represents the fluorescence intensity.
(§1) Then, changes in fluorescence intensities were observed.
Firstly, X2S, X2S(3), X2S(4), X2S(5), X2S(2-Me), and 3,6-X2S(2) were respectively mixed with cacodylate buffer solutions (sodium cacodylate: 10 mM, pH 7.0; NaCl: 100 mM) each at 1.0 μM, so that solutions of the respective compounds were obtained. RRE used in this Example was the same as that used in Example 4. RRE was added to each of the solutions of the respective compounds in steps at 0.0 μM, 0.2 μM, 0.4 μM, 0.8 μM, and 1.0 μM.
Each of the solutions to which RRE was added was irradiated with light, and a fluorescence intensity was measured. A device used for measuring the fluorescence intensity was the same as that used in Example 13. A variation in a slit width was also the same as that in Example 14.
FIG. 39 is a graph illustrating a relationship between a concentration of RRE added and a fluorescence intensity of each compound. Further, FIG. 39 is also a view plotting the fluorescence intensities of the respective fluorescence peaks shown in the results illustrated in FIGS. 33 to 38. FIG. 40 is a view plotting residual fluorescence intensities (%) which were obtained based on the results shown in FIGS. 33 to 38, assuming that the fluorescence intensities of the respective fluorescence peaks observed at a concentration of 0.0 μM of RRE were 100%. In each of FIGS. 39 and 40, the horizontal axis represents the concentration of the RNA. In FIG. 39, the vertical axis represents the fluorescence intensity. In FIG. 40, the vertical axis represents the residual fluorescence intensity (%).
FIG. 41 is a view plotting values obtained by dividing (i) the residual fluorescence intensities (%) obtained in the case involving use of the double strand RNA by (ii) the residual fluorescence intensities (%) obtained in the case involving use of RRE. That is, FIG. 41 is a view plotting values obtained by dividing (i) the residual fluorescence intensity (%) shown in FIG. 32 by (ii) the residual fluorescence intensities (%) shown in FIG. 40. FIG. 42 is a view plotting values obtained by subtracting (i) the residual fluorescence intensities (%) obtained in the case involving use of RRE from (ii) the residual fluorescence intensities (%) obtained in the case involving use of the double strand RNA. That is, FIG. 42 is a view plotting values obtained by subtracting (i) the residual fluorescence intensities (%) shown in FIG. 40 from (ii) the residual fluorescence intensities (%) shown in FIG. 32.
In this Example, 1-Pyrenemethanamide, hydrochloride was caused to bind to a double strand RNA or RRE. Then, a change in a fluorescence intensity was observed. […]

[1] = system: double strand RNA (SEQ ID NO: 1 hybridized with SEQ ID NO: 3); assay: Fluorescence titration experiment using double strand RNA; format: binding; details: 1.0 μM compound, double strand RNA 0.0-1.0 μM
Procedure: as §1
Firstly, X2S, X2S(3), X2S(4), X2S(5), X2S(2-Me), and 3,6-X2S(2) were respectively mixed with cacodylate buffer solutions (sodium cacodylate: 10 mM, pH 7.0; NaCl: 100 mM) each at 1.0 μM, so that solutions of the respective compounds were obtained.
As the double strand RNA, an RNA as in FIG. 2 having N representing no base was used. Specifically, an RNA formed by hybridization of an RNA having the base sequence shown in SEQ ID NO: 1 with an RNA having the base sequence shown in SEQ ID NO: 3 was used. The RNA was added to each of the solutions of the above compositions in steps at 0.0 μM, 0.2 μM, 0.4 μM, 0.8 μM, and 1.0 μM.
Each of the solutions to which the RNAs were added was irradiated with light, and a fluorescence intensity was measured. A device used for measuring the fluorescence intensity was the same as that used in Example 13. A variation in a slit width was set to ±3.0 nm during the excitation, and to ±3.0 nm during the measurement of fluorescence.
In each of FIGS. 25 to 30, the horizontal axis represents the fluorescence wavelength, whereas the vertical axis represents the fluorescence intensity.
FIG. 31 is a graph illustrating a relationship between a concentration of the double strand RNA added and a fluorescence intensity of each compound. […]

Compound | reduction of fluorescence intensity (residual fluorescence intensity) on binding RRE (RRE) | difference in quenching efficiency between RRE and double strand RNA (RRE) | reduction of fluorescence intensity (residual fluorescence intensity) on binding double strand RNA [1]
CC(N)COc1ccc2oc3ccc(OCC(C)N)cc3c(=O)c2c1 (stereo not drawn) [X2S(3), 2,7-bis(2-aminopropoxy)xanthen-9-one] | particularly high reduction rates | greatest | particularly high reduction rates
CCC(N)COc1ccc2oc3ccc(OCC(N)CC)cc3c(=O)c2c1 (stereo not drawn) [X2S(4), 2,7-bis(2-aminobutoxy)xanthen-9-one] | particularly high reduction rates | greatest | particularly high reduction rates
